Consider six molecules from US10370538B2 (priority 2015, dated 2019).

Entries after “also recorded” stand apart in the source; their conditions may differ.

For one assay, the system named is mycobacteria. Conditions: reported in the literature; cited from earlier work.
In another assay the test system is M. smegmatis. The following applies: 10 μM, room temperature, 1 h, washed.
For assay [1], the system named is E. coli expressing TEM1-β-lactamase. It counts as cell-based.
Assay [2] deals with BCG. Type of assay: cell-based, Mycobacterium bovis. The following applies: 10 μM, room temperature, 1 h, washed.
Assay [3] concerns Mycobacterium tuberculosis H37Rv. Type of assay: cell-based.
For assay [4], the system named is BCG. Type of assay: cell-based, Mycobacterium bovis. Conditions: 10 μM, no washing.
Assay [5] has as its system patients' clinical sputum samples. Put plainly: staining of patients' processed sputum samples. Type of assay: cell-based. The following applies: 10 μM, 1 h, room temperature. The protocol:
FIG. 15 is a series of digital fluorescence confocal microscope images of CDG-DNB2 stained patients' processed sputum samples. Processed sputum samples were centrifuged and resuspended in 10 μM CDG-DNB2 for 1 h at room temperature. Cells were pelleted and washed stringently 3 times with PBS before fixation with 10% formalin for 30 min. Cells were further visualized using a confocal microscope at 20× or 60×/Ex 490-Em520.
Clinical study with CDG-DNB2: Probe CDG-DNB2 has been evaluated in patients' clinical sputum samples: 4 positive and 4 negative samples.

The target of assay [6] is M. smegmatis DprE1 protein (Mycolicibacterium smegmatis, UniProt A0R607). Description: fluorescence labeling of purified DprE1 protein by dye-DNB analogues in the presence of M. smegmatis lysate. It counts as biochemical. The following applies: for covalent fluorescence labeling of DprE1 protein: 10 μM probe, in the presence of M. smegmatis lysate.
M. smegmatis DprE1 protein, sequence (A0R607 whole entry): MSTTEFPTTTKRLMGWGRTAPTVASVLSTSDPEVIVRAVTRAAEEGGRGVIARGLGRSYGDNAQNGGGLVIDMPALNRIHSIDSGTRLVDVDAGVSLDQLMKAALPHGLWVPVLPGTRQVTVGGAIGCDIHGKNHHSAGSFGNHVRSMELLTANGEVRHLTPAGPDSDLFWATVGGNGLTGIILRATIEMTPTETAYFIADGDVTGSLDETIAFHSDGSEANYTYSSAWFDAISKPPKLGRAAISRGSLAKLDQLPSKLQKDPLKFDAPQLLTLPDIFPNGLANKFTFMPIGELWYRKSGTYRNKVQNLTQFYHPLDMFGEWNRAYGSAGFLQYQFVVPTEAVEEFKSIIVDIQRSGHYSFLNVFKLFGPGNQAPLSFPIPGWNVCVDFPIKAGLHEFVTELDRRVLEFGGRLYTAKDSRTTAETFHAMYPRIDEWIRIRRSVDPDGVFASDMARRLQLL

On to `C[C@H]1COC2(CCN(c3nc(=O)c4cc(C(F)(F)F)cc([N+](=O)[O-])c4s3)CC2)O1` [BTZ043], for which the antimycobacterial activity entry in the assay with mycobacteria is given as “potent antimycobacterial agents”.

Regarding `COc1ccc(-c2c3ccc(=O)cc-3oc3cc(OCc4ccc(OCC5=C(C(=O)O)N6C(=O)[C@@H](NC(=O)Cc7ccccc7)[C@H]6SC5)cc4)ccc23)c(C)c1` [CDG-1], the “trapping of fluorescence signal in or on M. smegmatis cells” value in the assay on M. smegmatis is listed as “cannot be trapped in or on the cells”.

As for `Cc1cc(OCCNC(=O)c2cc([N+](=O)[O-])cc([N+](=O)[O-])c2)ccc1-c1c2ccc(=O)cc-2oc2cc(OCc3ccc(OCC4=C(C(=O)O)N5C(=O)[C@@H](NC(=O)Cc6ccccc6)[C@H]5SC45CC5)cc3)ccc12` [CDG-DNB2], in assay [1], the “hydrolysis of probe by TEM1 β-lactamase-transformed E. coli” value is “can hydrolyze CDG-DNB2 and generate the uncaged fluorescent signal”; the “retention of fluorescence in TEM1 β-lactamase-transformed E. coli” value was “cannot retain the fluorescence”. Also, the “staining of BCG (confocal)” value with BCG [2] is reported as “exhibited an intense (green) fluorescent signal”. Moreover, in assay [3], the “fold increase of fluorescence intensity over control levels, H37Rv” value was “about 20 fold” and the “staining of H37Rv (confocal)” value is “exhibited an intense (green) fluorescent signal”. Further, the “time at which prominent fluorescence was observed” value in the assay with BCG [4] (imaged every 2.5 min from 5 min) is 15 min. In the assay with BCG [4] (time at which imaging was stopped), the “continuous enhancement of fluorescence till” value is reported as 75 min. In assay [5] (4 negative samples), the “staining of negative sputum samples” value was “all the negative samples had little background fluorescence”. In assay [5] (4 positive samples), the “staining of positive sputum samples” value was 4 positive samples all displayed green fluorescence-stained bacteria.

For the molecule `COc1ccc(OCCNC(=O)c2cc([N+](=O)[O-])cc([N+](=O)[O-])c2)cc1` [DNB1, reference compound], in assay [6] (DprE1SM incubated with 50 μM DNB1 for one hour prior to addition of TG-DNB1), the “DprE1 labeling by TG-DNB analogues after pre-incubation with DNB1” value is recorded as “abolished the band”. Further, the antimycobacterial activity result with mycobacteria was “potent antimycobacterial agents”.

Consider `Cc1cc(OCCn2cc(CNC(=O)c3cc([N+](=O)[O-])cc([N+](=O)[O-])c3)nn2)ccc1-c1c2ccc(=O)cc-2oc2cc(O)ccc12` [TG-DNB1], for which the “covalent fluorescence labeling of DprE1 protein” value in assay [6] was “significantly higher labeling capability than did the two mononitro compounds; also recorded: a fluorescent band was observed”.

As to `Cc1cc(OCCNC(=O)c2cc([N+](=O)[O-])cc([N+](=O)[O-])c2)ccc1-c1c2ccc(=O)cc-2oc2cc(O)ccc12` [TG-DNB2], in assay [6], the “covalent fluorescence labeling of DprE1 protein” value is on record as “significantly higher labeling capability than did the two mononitro compounds; also recorded: a fluorescent band was observed”.
